Here are results for eight compounds from US11708391B2, “Rapaglutins, novel inhibitors of GLUT and use thereof” (The Johns Hopkins University, priority 2016, dated 2023).

SMILES strings stand for the structures. Where two headings read alike, the source gives them in different places.

Assay [1] deals with glucose transporters. Nature of the assay: 2-deoxy-D-[3H] glucose uptake in A549 cells. The class given is cell-based, human. To be noted: A549 cells. On the procedure: FIGS. 2A-2D. Inhibition of Glucose Transport by A18 and E11. (a) Inhibition of 3-O-methyl¬D-[3H] glucose uptake in A549 cells by A18. (b) Inhibition of 3-O-methyl-D-[3H] glucose uptake in A549 cells by E11. (c) Inhibition of 2-deoxy-D-[3H] glucose uptake in A549 […] cells by A18. (d) Inhibition of 2-deoxy-D-[3H] glucose uptake in A549 cells by E11.
FIGS. 16A-16B. Inhibition of Glucose Transport by A18 and E11. Cytochalasin B (10 μM), A18 (3 μM), E11 (3 μM) and DMSO control were used to treated A549 cells for 10 min (a) or 1 min (b), then glucose uptake in the treated cells was measured at 1, 3, 10 and 30 min after the addition of 2-dexoy-D-[^3H] glucose.
Direct action on glucose transporters was measured by monitoring uptake of 3H-labeled 3-O-methylglucose, which is transported by glucose transporters but not metabolized further, allowing the assessment of initial rate of glucose uptake. […] Initial uptake can also be assessed by measuring the uptake of 3H-labeled 2-deoxy-D-glucose, which gets into the cell through glucose transporters and is phosphorylated by hexokinase but cannot be metabolized further due to the lack of oxygen at the second position.

The test system of assay [2] is glucose transporters. Conditions: HL-60; read-out: IC50 (cell line); cited from earlier work.
In assay [3] the test system is glucose transporters. To be noted: DU145; read-out: IC50 (cell line); cited from earlier work.
Assay [4] deals with glucose transporters. To be noted: RCC4; read-out: IC50 (cell line); cited from earlier work.
For assay [5], the system named is glucose transporters. Conditions: CHO-K1; read-out: IC50 (cell line); cited from earlier work.
For assay [6], the system named is glucose transporters. To be noted: A549; read-out: IC50 (cell line); cited from earlier work.
Assay [7] relates to glucose transporters. Conditions: SW620; read-out: IC50 (cell line); cited from earlier work.
In assay [8] the test system is glucose transporters. To be noted: LNCaP; read-out: IC50 (cell line); cited from earlier work.

Take `CCC(C)(C)C(=O)C(=O)N1CCCC[C@H]1C(=O)O[C@H](CCc1ccc(OC)c(OC)c1)c1cccc(OCC(=O)O)c1` [SLF, reference compound]: the “antagonism of inhibitory effects of A18 or E11 on 2-deoxy-D-glucose uptake by FKBP ligands” value in the assay with glucose transporters [1] is on record as “significantly impaired the inhibitory activity of E11”.

By IC50 is commonly meant the concentration needed to halve the response being measured. With `O=c1c(-c2ccc(O)cc2)coc2cc(O)cc(O)c12` [Genistein], the IC50 in the assay with glucose transporters [2] is around 12000 nM.

As to `CC(=O)CC(=O)Nc1ccc(Cl)c(C(F)(F)F)c1` [Fasentin], in the assay on glucose transporters [3], the IC50 is around 80000 nM.

Consider `CC(C)(C)c1ccc(S(=O)(=O)NCc2ccc(C(=O)Nc3cccnc3)cc2)cc1` [STF-31], for which the concentration for half-maximal inhibition (IC50) in the assay on glucose transporters [4] is around 1200 nM.

On to `CCOC(=O)[C@@]12CCCCC/C=C\1N(C(=O)c1cccc3ccccc13)C(=O)[C@H]2CC(=O)N1CCN(C(=O)c2ccco2)CC1` [Compound 11], for which the half-inhibitory concentration (IC50) with glucose transporters [5] is 2000 nM.

With `O=C(Oc1cccc(F)c1OC(=O)c1cccc(O)c1)c1cccc(O)c1` [WZB117], the IC50 with glucose transporters [6] was around 500 nM.

In the case of `O=C(CCc1ccc(O)cc1)c1c(O)cc(O)cc1O` [Phloretin], in the assay on glucose transporters [7], the IC50 was above 10000 nM.

In the case of `CC(CN1C(=O)S/C(=C/c2ccc(O)c(C(F)(F)F)c2)C1=O)(CC(F)(F)F)CC(F)(F)F` [Cpd30], in the assay on glucose transporters [8], the concentration for half-maximal inhibition (IC50) is 2000 nM.
